Data published in US20040063685A1, “Combination Drugs” (priority 2000, published 2004).

Legend:
E. coli O111 strain = assay: Survival of mice intraperitoneally inoculated with E. coli O111, combined use with ceftazidime; format: in vivo; details: FIG. 1
Procedure: The E. coli O111 strain was suspended in 5% mucin, and 0.5 ml thereof was intraperitoneally inoculated to mice (BALB/c, male, 5-week-old) (9×10^4 CFU per mouse). At 1 hr after inoculation, an antibacterial agent, ceftazidime (CAZ, 12.5 μg/kg) was administered subcutaneously, and compound 29 (test compound 30 mg/kg) of Reference Example B65 suspended in a 0.5% methyl cellulose (MC) solution was simultaneously administered orally.

[1] = crystals

SMILES	survival rate (E. coli O111 strain; combined use: compound 29 30 mg/kg orally (0.5% methyl cellulose) and ceftazidime (CAZ) 12.5 μg/kg subcutaneously at 1 hr after inoculation, BALB/c male mice, 9×10^4 CFU per mouse, monitored for a week)	effectiveness of test compound alone (survival) (E. coli O111 strain; compound 29 30 mg/kg orally without ceftazidime, BALB/c mice infected with E. coli O111)	hygroscopicity [1]
CCOC(=O)C1=CCCCC1S(=O)(=O)Nc1ccc(F)cc1Cl (stereo not drawn) [compound 29, ethyl 6-[N-(2-chloro-4-fluorophenyl)sulfamoyl]-1-cyclohexene-1-carboxylate]	remarkably increases	low effectiveness	
CCOC(=O)C1=CCCCC1S(=O)(=O)Nc1ccc(F)cc1Cl (stereo not drawn) [crystals of compound B, d-ethyl 6-[N-(2-chloro-4-fluorophenyl)sulfamoyl]-1-cyclohexene-1-carboxylate]			low
